Values of other authors in patent US9630894B2, “Energy efficient method and apparatus for the extraction of biomolecules from dilute aqueous solution” (DYNASEP INC., priority 2012, dated 2017).

Conditions: cited from earlier work

For `COC` [DME, dimethyl ether], which solubility in water is on record?
The solubility in water was “approximately 20 wt. %”.
